{
  "source": "patent US7749528B2",
  "about": "“Implantable and sealable medical device for unidirectional delivery of therapeutic agents to tissues” (priority 2001, dated 2010)",
  "key": {"[1]": {"settings": "administered locally; cited from earlier work"}, "[2]": {"settings": "cited from earlier work"}, "[3]": {"assay": "Phase I study of the toxicity of local carboplatin", "assay_type": "in vivo", "settings": "following 6 local injections of carboplatin", "experimental": "Protection Against Local Orbital or Periocular Toxicity: The periocular delivery of therapeutic agents is employed when increased amounts of the agent are needed inside the eye. In the case of advanced intraocular retinoblastoma, tumor cells in the vitreous gel are not exposed to sufficient amounts of the chemotherapeutic agents. For this reason, local periocular carboplatin is added to the regimen of systemic chemotherapy for advanced disease. […] Mulvihill et al. reported the complications associated with periocular injections of the chemotherapeutic agent carboplatin in infants with retinoblastoma. This emphasizes the need of a sealed system for unidirectional delivery of toxic agents to the eye."}, "[4]": {"settings": "cited from earlier work", "remark": "listed apart in the source"}},
  "data": [
    {"smiles": "COc1cc([C@@H]2c3cc4c(cc3[C@@H](O[C@@H]3O[C@@H]5CO[C@@H](C)O[C@H]5[C@H](O)[C@H]3O)[C@H]3COC(=O)[C@H]23)OCO4)cc(OC)c1O", "note": "[Etoposide]", "values": [
      {"measurement": "local toxicity", "setting": "[1]", "result": "extremely toxic when administered locally"}
    ]},
    {"smiles": "CO[C@@H]1[C@H](N(C)C(=O)c2ccccc2)C[C@H]2O[C@]1(C)n1c3ccccc3c3c4c(c5c6ccccc6n2c5c31)C(=O)NC4", "note": "[PKC412]", "values": [
      {"measurement": "side effects when administered orally", "setting": "[2]; administered orally", "result": "nausea and diarrhea"},
      {"measurement": "toxicity by the periocular route", "setting": "[2]; periocular route, simple injections", "result": "ocular irritation and toxicity was observed"}
    ]},
    {"smiles": "N.N.O=C([O-])C1(C(=O)[O-])CCC1.[Pt+2]", "note": "[carboplatin]", "values": [
      {"measurement": "long-term toxic effects", "setting": "[3]", "result": "atrophy of the orbital fat and connective tissue"},
      {"measurement": "local tissue tolerance", "setting": "[4]; bolus injected into the periocular space", "result": "well tolerated by the local tissue"},
      {"measurement": "complications after periocular injection", "setting": "[4]; periocular injections, after a certain period following the injection", "result": "ocular motility problems, including restriction of the eye movements"}
    ]}
  ]
}
